Columns and labels:
Type in all cases: in vivo
Ambrosia = experiment: Pre-emergence test/Greenhouse, Ambrosia; conditions: after three weeks
Outline: (§1)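 Pre-emergence soil drench ~24 h after sowing; compound in solvent/emulsifier diluted with water, constant water per area, dose defined by rate per unit area. Read-out at 3 wk: % damage vs untreated control, 0% = no action.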

Matricaria = experiment: Pre-emergence test/Greenhouse, Matricaria; conditions: after three weeks
Outline: as §1

weeds = experiment: Pre-emergence test (greenhouse), activity against weeds; conditions: in words
Outline: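 Three weeks after treatment, % damage relative to untreated plants is scored, 0% meaning no effect. Seeds in normal soil received, roughly one day post-sowing, an aqueous dilution of an acetone/emulsifier concentrate, with the rate per unit area, not concentration, being the relevant dose.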

Maize = experiment: Pre-emergence test/Greenhouse, Maize; conditions: in vivo
Outline: as §1

Sorghum = experiment: Pre-emergence test/Greenhouse, Sorghum; conditions: after three weeks
Outline: as §1

Lolium = experiment: Pre-emergence test/Greenhouse, Lolium; conditions: after three weeks
Outline: as §1

Soya beans = experiment: Pre-emergence test/Greenhouse, Soya beans; conditions: in vivo
Outline: as §1

Solanum = experiment: Pre-emergence test/Greenhouse, Solanum; conditions: after three weeks
Outline: as §1

Poa = experiment: Pre-emergence test/Greenhouse, Poa; conditions: after three weeks
Outline: as §1

| SMILES | degree of damage to the plants (% damage vs untreated control), Ambrosia (Ambrosia; 125 g of ai./ha) | degree of damage to the plants (% damage vs untreated control), Matricaria (Matricaria; 125 g of ai./ha) | activity against weeds (weeds) | degree of damage to the plants (% damage vs untreated control), Maize (Maize) | degree of damage to the plants (% damage vs untreated control), Sorghum (Sorghum; 125 g of ai./ha) | degree of damage to the plants (% damage vs untreated control), Lolium (Lolium; 125 g of ai./ha) | degree of damage to the plants (% damage vs untreated control), Soya beans (Soya beans) | degree of damage to the plants (% damage vs untreated control), Solanum (Solanum; 125 g of ai./ha) | degree of damage to the plants (% damage vs untreated control), Poa (Poa; 125 g of ai./ha) | further results |
| --- | --- | --- | --- | --- | --- | --- | --- | --- | --- | --- |
| CCCOC(=O)c1cccc(C)c1S(=O)(=O)NC(=O)n1nc(OCC)n(C)c1=O [Example 21] | 95% | 95% | very strong activity against weeds | 0% | 95% | 95% | 0% | 95% | 95% |  |
| Cc1cccc(C(=O)OC(C)C)c1S(=O)(=O)NC(=O)n1nc(OC(C)C)n(C)c1=O [Example 18] |  |  | very strong activity against weeds | 10% |  |  | 0% |  |  | degree of damage to the plants (% damage vs untreated control), Ambrosia (Ambrosia; 60 g of ai./ha): 95%; degree of damage to the plants (% damage vs untreated control), Matricaria (Matricaria; 60 g of ai./ha): 95%; degree of damage to the plants (% damage vs untreated control), Sorghum (Sorghum; 60 g of ai./ha): 90%; degree of damage to the plants (% damage vs untreated control), Lolium (Lolium; 60 g of ai./ha): 80%; degree of damage to the plants (% damage vs untreated control), Solanum (Solanum; 60 g of ai./ha): 95%; degree of damage to the plants (% damage vs untreated control), Poa (Poa; 60 g of ai./ha): 95% |
| COC(=O)c1cccc(C)c1S(=O)(=O)NC(=O)n1nc(SCC(F)(F)F)n(C2CC2)c1=O [Example 149] | 95% | 95% | very strong activity against weeds | 0% | 80% | 95% | 30% | 95% | 95% |  |
| CCCOC(=O)c1cccc(C)c1S(=O)(=O)NC(=O)n1nc(CCC)n(C)c1=O [Example 47] | 95% | 95% | very strong activity against weeds | 10% | 60% | 90% | 10% | 95% | 90% |  |
| CCOc1nn(C(=O)NS(=O)(=O)c2c(Cl)cccc2C(=O)OC)c(=O)n1C [Example 129] |  |  | very strong activity against weeds | 10% |  |  | 10% |  |  | degree of damage to the plants (% damage vs untreated control), Ambrosia (Ambrosia; 250 g of ai./ha): 60%; degree of damage to the plants (% damage vs untreated control), Matricaria (Matricaria; 250 g of ai./ha): 90%; degree of damage to the plants (% damage vs untreated control), Sorghum (Sorghum; 250 g of ai./ha): 90%; degree of damage to the plants (% damage vs untreated control), Lolium (Lolium; 250 g of ai./ha): 95%; degree of damage to the plants (% damage vs untreated control), Solanum (Solanum; 250 g of ai./ha): 95%; degree of damage to the plants (% damage vs untreated control), Poa (Poa; 250 g of ai./ha): 95% |
| CCOc1nn(C(=O)NS(=O)(=O)c2c(OC)cccc2C(=O)OC)c(=O)n1C [Example 136] | 80% | 90% | very strong activity against weeds | 30% | 90% | 95% | 20% | 95% | 95% |  |
| CCCOC(=O)c1cccc(Cl)c1S(=O)(=O)NC(=O)n1nc(OCC)n(C)c1=O [Example 134] |  |  | very strong activity against weeds | 0% |  |  | 20% |  |  | degree of damage to the plants (% damage vs untreated control), Ambrosia (Ambrosia; 500 g of ai./ha): 80%; degree of damage to the plants (% damage vs untreated control), Matricaria (Matricaria; 500 g of ai./ha): 90%; degree of damage to the plants (% damage vs untreated control), Sorghum (Sorghum; 500 g of ai./ha): 70%; degree of damage to the plants (% damage vs untreated control), Lolium (Lolium; 500 g of ai./ha): 95%; degree of damage to the plants (% damage vs untreated control), Solanum (Solanum; 500 g of ai./ha): 95%; degree of damage to the plants (% damage vs untreated control), Poa (Poa; 500 g of ai./ha): 90% |
| COC(=O)c1cccc(C)c1S(=O)(=O)NC(=O)n1nc(SC)n(OC)c1=O [Example 156] |  |  | very strong activity against weeds | 0% |  |  | 10% |  |  | degree of damage to the plants (% damage vs untreated control), Ambrosia (Ambrosia; 60 g of ai./ha): 70%; degree of damage to the plants (% damage vs untreated control), Matricaria (Matricaria; 60 g of ai./ha): 95%; degree of damage to the plants (% damage vs untreated control), Sorghum (Sorghum; 60 g of ai./ha): 70%; degree of damage to the plants (% damage vs untreated control), Lolium (Lolium; 60 g of ai./ha): 70%; degree of damage to the plants (% damage vs untreated control), Solanum (Solanum; 60 g of ai./ha): 70%; degree of damage to the plants (% damage vs untreated control), Poa (Poa; 60 g of ai./ha): 90% |
